Test results from patent US20070254863A1 (priority 2006, published 2007).
Read-outs that look alike come from different tables or passages of the source.

Experiments:
[1] = tested on: rat perifused pancreatic islets; assay: KATP opening effects through insulin secretion in rat perifused pancreatic islets; type: cell-based; conditions: 11 mM glucose; for % Inhibition 0-30 (insulin secretion): 0-30 minutes; for % Inhibition 30-60 (insulin secretion): 30-60 minutes
Procedure: Determination of the KATP Opening Effects of Compounds Through Insulin Secretion in Rat Perifused Pancreatic Islets
The animals were maintained on a 12 h light-dark cycle (lights on 06.00-18.00 h) with free access to standard rodent diet (B&K Universal Ltd standard rat and mouse diet (BK 001P), Beekay Feeds, B&K Universal Ltd, Hull, East Riding of Yorkshire) and tap water. The rats were conditioned to this environment for at least one week before experimentation.
Experimental procedures: After the rats were sacrificed, the branch of the bile duct leading to the liver and the duodenal end of the duct in the pancreas were clamped and the pancreas distended by injection of ice-cold 0.9 mg/ml collagenase solution into the bile duct. […] Following incubation, 10 ml of cold buffer was added and the suspension shaken vigorously by hand for 1 min. The islets were allowed to settle for 5 min on ice and washed three times using ice-cold buffer. Well-formed and good-sized islets from three rats were hand-picked (under a low power microscope) and pooled and a final selection of islet transferred to the perifusion apparatus.
Two experiments were performed in parallel in two identical, independent sets of perifusion apparatus each consisting of sufficient number of chambers. Each chamber was loaded with 20 hand-picked islets. Islets were perifused for an initial 30 min period in media containing 4 mM glucose. Perifusate was then collected at 2 min intervals for the remainder of the experiment. […] Perifusate fractions were stored at −75° C. until required for insulin assay. Insulin content of fractions were assayed using a 96-well ELISA assay (Mercodia). Initial insulin assays were performed in triplicate on three pooled fractions from each chamber.
Data were initially expressed as a simple mean of the three experiments for insulin secretion (pg/islet/min) and multiple t-tests (against the corresponding vehicle time period) used to determine potential significant effects of treatments. Alternatively, data were also calculated as a % vehicle effect for each experimental day. This latter approach was deemed to be the more powerful analysis as it corrected for the day to day variation in insulin release from the islets.

[2] = target: human cannabinoid CB2 receptor (Homo sapiens, UniProt P34972); assay: biochemical; type: binding
human cannabinoid CB2 receptor, sequence (P34972 whole entry): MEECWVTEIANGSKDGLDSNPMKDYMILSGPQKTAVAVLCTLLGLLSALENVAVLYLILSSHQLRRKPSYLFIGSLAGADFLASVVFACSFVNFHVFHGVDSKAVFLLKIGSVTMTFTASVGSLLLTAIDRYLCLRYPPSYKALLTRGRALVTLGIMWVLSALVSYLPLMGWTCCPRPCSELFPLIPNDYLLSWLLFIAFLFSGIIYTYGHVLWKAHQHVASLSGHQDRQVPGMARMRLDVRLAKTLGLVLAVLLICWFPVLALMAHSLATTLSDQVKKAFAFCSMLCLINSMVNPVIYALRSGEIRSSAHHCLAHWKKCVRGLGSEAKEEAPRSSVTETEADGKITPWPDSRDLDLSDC
Procedure: 3. In Vitro Binding Affinity of the Test Compounds to CB2 Receptors
After incubation of a freshly prepared cell membrane preparation with the [^3H]-ligand, with or without the addition of the compounds described herein, separation of bound and free ligand is performed by filtration over glass-fiber filters. Radioactivity on the filter is measured by liquid scintillation counting.

[3] = target: rat SUR2A (Rattus norvegicus, UniProt Q63563); assay: In vitro binding affinity to rodent KATP channels: SUR2A ([3H]P1075 / [3H]glibenclamide displacement, COS cell membranes)
rat SUR2A, sequence (Q63563 whole entry): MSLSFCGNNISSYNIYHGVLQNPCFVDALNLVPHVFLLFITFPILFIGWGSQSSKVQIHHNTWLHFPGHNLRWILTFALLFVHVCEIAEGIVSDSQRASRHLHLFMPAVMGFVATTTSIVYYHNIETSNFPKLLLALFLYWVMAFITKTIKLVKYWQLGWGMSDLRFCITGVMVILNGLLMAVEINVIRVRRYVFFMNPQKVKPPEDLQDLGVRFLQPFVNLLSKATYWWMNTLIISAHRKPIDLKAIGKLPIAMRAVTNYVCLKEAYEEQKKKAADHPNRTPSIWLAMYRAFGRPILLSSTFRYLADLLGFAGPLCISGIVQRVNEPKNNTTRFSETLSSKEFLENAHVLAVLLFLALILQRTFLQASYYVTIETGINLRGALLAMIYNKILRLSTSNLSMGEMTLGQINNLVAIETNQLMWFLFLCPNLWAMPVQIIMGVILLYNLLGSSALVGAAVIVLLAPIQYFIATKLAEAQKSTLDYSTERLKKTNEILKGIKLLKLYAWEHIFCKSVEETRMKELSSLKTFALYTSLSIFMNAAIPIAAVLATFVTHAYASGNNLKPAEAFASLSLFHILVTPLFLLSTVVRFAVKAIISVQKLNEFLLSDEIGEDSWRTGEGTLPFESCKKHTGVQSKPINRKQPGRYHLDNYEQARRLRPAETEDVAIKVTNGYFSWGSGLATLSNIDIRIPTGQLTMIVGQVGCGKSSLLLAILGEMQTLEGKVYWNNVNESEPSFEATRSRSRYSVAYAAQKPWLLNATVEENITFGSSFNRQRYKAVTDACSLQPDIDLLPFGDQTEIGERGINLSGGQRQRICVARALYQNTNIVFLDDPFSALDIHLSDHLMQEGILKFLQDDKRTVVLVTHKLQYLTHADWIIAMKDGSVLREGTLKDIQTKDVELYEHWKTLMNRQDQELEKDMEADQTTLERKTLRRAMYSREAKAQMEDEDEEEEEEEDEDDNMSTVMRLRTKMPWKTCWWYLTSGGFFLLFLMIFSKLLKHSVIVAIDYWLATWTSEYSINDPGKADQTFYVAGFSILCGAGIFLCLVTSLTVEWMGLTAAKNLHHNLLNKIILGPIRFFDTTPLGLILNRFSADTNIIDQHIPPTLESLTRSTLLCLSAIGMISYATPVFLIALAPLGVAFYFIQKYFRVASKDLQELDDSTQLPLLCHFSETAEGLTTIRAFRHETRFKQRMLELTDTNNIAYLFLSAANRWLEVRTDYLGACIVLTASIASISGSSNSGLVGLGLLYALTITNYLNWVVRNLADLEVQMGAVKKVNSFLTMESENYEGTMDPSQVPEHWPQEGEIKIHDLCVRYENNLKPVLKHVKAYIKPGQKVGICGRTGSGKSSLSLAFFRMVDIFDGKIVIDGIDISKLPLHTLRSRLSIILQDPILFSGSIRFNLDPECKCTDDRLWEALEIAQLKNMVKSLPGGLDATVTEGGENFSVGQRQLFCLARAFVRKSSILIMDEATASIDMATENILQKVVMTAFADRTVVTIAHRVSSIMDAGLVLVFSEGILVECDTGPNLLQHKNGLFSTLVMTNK
Method in brief: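 COS-cell membranes transiently expressing rat SUR2A incubated 1 h at room temperature in 50 mM Tris pH 7.4, ~0.7 mM free Mg2+, with 3 nM [3H]P1075 (wild type) or [3H]glibenclamide (SUR2AY1205S); filtration read-out. Ki from IC50, reported as pKi; 9-15 concentrations per curve.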

[4] = target: T1, hamster SUR1 (Cricetus cricetus, UniProt Q09427); assay: In vitro binding affinity to rodent KATP channels: SUR1 ([3H]glibenclamide displacement, COS cell membranes); conditions: hamster SUR1 in COS cell membranes; read-out: Affinity to SUR 1 (converted)
T1 construct: expressed in transfected cells; host or cells: COS-1 cells, transient (pcDNA vector)
T1 sequence (Q09427 whole entry): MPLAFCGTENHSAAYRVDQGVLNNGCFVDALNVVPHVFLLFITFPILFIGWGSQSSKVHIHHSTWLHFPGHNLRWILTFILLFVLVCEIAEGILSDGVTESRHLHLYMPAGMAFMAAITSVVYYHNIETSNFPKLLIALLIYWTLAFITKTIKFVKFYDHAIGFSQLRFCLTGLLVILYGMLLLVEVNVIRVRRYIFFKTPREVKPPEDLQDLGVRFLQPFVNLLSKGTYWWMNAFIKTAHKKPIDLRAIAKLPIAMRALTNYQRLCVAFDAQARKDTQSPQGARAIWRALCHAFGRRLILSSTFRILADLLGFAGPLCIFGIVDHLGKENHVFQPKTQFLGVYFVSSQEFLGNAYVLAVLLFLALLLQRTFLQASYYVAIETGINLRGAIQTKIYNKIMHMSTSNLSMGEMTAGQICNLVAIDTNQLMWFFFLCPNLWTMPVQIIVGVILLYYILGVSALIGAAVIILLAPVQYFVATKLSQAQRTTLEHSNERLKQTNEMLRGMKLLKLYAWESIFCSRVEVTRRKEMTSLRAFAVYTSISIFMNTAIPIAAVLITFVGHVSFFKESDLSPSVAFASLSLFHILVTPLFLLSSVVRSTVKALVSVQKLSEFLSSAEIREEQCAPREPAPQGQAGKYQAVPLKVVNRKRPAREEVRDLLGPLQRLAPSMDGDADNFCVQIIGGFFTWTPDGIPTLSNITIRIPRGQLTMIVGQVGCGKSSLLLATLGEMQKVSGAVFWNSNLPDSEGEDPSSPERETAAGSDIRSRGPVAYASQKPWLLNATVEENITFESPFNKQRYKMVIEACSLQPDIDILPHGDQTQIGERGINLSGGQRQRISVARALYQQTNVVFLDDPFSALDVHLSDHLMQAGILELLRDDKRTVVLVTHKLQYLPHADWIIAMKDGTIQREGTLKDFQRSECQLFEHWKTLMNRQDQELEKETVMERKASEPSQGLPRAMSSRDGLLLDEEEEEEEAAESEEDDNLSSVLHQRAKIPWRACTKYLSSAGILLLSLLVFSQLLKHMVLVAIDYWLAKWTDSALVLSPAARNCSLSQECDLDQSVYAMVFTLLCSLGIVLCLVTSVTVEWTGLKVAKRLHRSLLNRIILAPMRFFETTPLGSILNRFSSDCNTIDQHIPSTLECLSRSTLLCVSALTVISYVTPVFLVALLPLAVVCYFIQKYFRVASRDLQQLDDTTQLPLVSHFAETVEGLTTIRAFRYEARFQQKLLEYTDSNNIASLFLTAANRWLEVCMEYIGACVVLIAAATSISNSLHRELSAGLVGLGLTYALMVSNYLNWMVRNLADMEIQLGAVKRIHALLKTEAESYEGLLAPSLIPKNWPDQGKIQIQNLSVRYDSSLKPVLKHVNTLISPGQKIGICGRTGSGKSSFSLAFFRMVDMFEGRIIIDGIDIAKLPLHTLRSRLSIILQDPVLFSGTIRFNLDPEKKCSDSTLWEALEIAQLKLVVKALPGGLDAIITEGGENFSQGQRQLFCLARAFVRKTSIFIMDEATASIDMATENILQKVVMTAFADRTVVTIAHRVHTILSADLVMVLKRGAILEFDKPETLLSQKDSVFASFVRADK

[5] = cloned human CB2 receptor expressed in CHO cells, read-out: Affinity to CB2 (converted)

SMILES | % Inhibition 0-30 (insulin secretion) [1] [%] | % Inhibition 30-60 (insulin secretion) [1] [%] | Ki [2] [nM] | pKi [3] | Ki [4] [nM] | Ki [2, 5] [nM]
CCc1c(C(=O)NN2CCCCC2)nc(-c2ccccc2Cl)n1-c1ccc(Cl)cc1 [1-(4-Chloro-phenyl)-2-(2-chloro-phenyl)-5-ethyl-1H-imidazole-4-carboxylic acid piperidin-1-ylamide, reference compound] | 59 | 45 | 1000 | 4.8 |  | 
CSc1c(C(=O)NN2CCCCC2)nc(-c2ccccc2Cl)n1-c1ccc(Cl)cc1 [1-(4-Chloro-phenyl)-2-(2-chloro-phenyl)-5-methylsulfanyl-1H-imidazole-4-carboxylic acid piperidin-1-ylamide] | 56 | 36 |  |  | 6.31 | 6310
CN1CCCCC1Cn1cc(C(=O)c2cc([N+](=O)[O-])ccc2I)c2ccccc21 (stereo not drawn) [AM-1241, (2-Iodo-5-nitro-phenyl)-[1-(1-methyl-piperidin-2-ylmethyl)-1H-indol-3-yl]-methanone, reference compound] | 97 | 74 |  |  | 3980 | 15.8
